Assay [1] concerns S. aureus. Briefly: Primary stage MIC measurement of antibiotic alone (OD 600 nm growth curves, 18 h). It is filed as cell-based, Staphylococcus aureus. An excerpt:
The following day, the turbidity of the actively-growing broth culture was adjusted with Calcium-adjusted Mueller Hinton broth II (MHBII) to be equivalent to that of a 0.5 McFarland standard (1×10^8 CFU/ml). The broth culture was maintained under ambient conditions prior to use.
The method used in this stage was based on the classic Minimum Inhibitory Concentration (MIC) measurements, as described by the Clinical and Laboratory Standards Institute (CLSI) document M07-A9: “Method for Dilution Antimicrobial Susceptibility Test for Bacteria that Grow Aerobically”. While classic MIC measurements require visual inspection of plates for bacterial growth after 18 hours, growth was monitored in the present study according to optical density (OD) at 600 nm, using an ELISA reader (MultiSkan™ FC ELISA reader, Thermo Fisher Scientific, Massachusetts, USA), thereby obtaining bacterial growth curves for tested antibiotic solutions.
Columns 1 and 3-12: 100 μl of MHBII alone was added to each well.
[…]: 200 μl of a solution of antibiotic in MHBII at the highest concentration to be tested was added to each well.
A series of 2-fold dilutions was performed, wherein 100 μl of solution of antibiotic was withdrawn from each well of column 2, transferred to the corresponding well of column 3, and mixed.
The dilution was then repeated by transfer from column 3 to column 4, and so on, until column 11, when the 100 μl of solution of antibiotic withdrawn from each well of column 11 was discarded.
(§1) The 5×10^6 CFU/ml stock suspension which had been prepared in advance was transferred into a reservoir and 10 μl of the stock suspension were added into each well of columns 2-11 using a multichannel pipette to obtain a final 5×10^5 CFU/ml suspension.
The plate was then incubated at 37° C. with shaking in the ELISA reader and the optical density at 600 nm was read every 20 minutes for a total of 18 hours.
The average OD reading obtained for each antibiotic concentration was calculated and plotted against time to obtain a growth curve.
The MIC was determined as the first antibiotic concentration at which […] by the end of the 18-hour period.

For assay [2], the system named is S. aureus. Briefly: Tertiary stage: antimicrobial activity (ET50/MIC) of extract of degradation products of antibiotic-impregnated ORC pads, single or combination. It is filed as cell-based, Staphylococcus aureus. As to conditions: impregnated on ORC pad together with 1.26 ng/ml minocycline. The method, then: Solutions comprising different concentrations of antibiotics to be tested were prepared in methanol.
Blank ORC pads of dimensions 1×1.5 inch, weighing between 65-75 mg (70 mg on average), in duplicate, were immersed in the antibiotic solutions and then dried using a rotary evaporator to provide extract of degradation products of antibiotic-impregnated ORC pads.
15 ml test tubes containing 3 ml of sterile PBS were prepared, and the antibiotic-impregnated ORC pads were immersed in the tubes and incubated for 3-5 hours at ambient temperature on a roller mixer (Stuart, Cat#SRT9D).
Each of the above extracts was filtered out using a sterile 0.8/0.2 μm syringe filter into a clean 15 ml tube. These extraction fluids are referred to herein as “extract of degradation products of antibiotic-impregnated ORC”.
Briefly, ORC pads weighing on average 70 mg each were impregnated with the selected antibiotic. Extracts of degradation products of antibiotic-impregnated ORC were prepared by immersion and incubation in 3 ml of sterile PBS for 3 hours at ambient temperature. The ORC degeneration products were then removed, and any remaining ORC particles were filtered out using a […] syringe filter. This extraction fluid was then diluted 10-fold into Muller Hinton growth medium containing bacteria. Bacterial growth was monitored every 20 min for a total of 18 hours according to optical density (OD) at 600 nm, using an ELISA reader.
Since the study included many possible combinations of two antibiotics, each with their own different concentration range, a matrix of possible antibiotic concentrations was designed, and degradation products of ORC were prepared accordingly (see Table 10). Since all the possible combinations could not be fitted into one 96 well plate, a series of MIC experiments were carried out.

Assay [3] relates to S. aureus. The experiment in a line: Secondary stage: bacterial growth (ET50/MIC) of antibiotics with or without extract of degradation products of ORC. It is filed as cell-based, Staphylococcus aureus. As to conditions: for Effect of addition of degradation products of ORC on the antibiotic activity: antibiotic with versus without ORC degradation products.
From the text: ORC pads which had not been impregnated with antibiotic (referred to herein as “blank ORC pads”), were subjected to extraction and degradation in PBS for three hours at ambient temperature. Extract obtained from these blank ORC pads is referred to herein as “blank extract of degradation products of ORC”.
Blank ORC pads were subjected to extraction and degradation in a solution of antibiotic in PBS. Extracts of degradation products obtained from blank ORC pads in a solution of antibiotic in PBS is referred to herein as “extracts of degradation products of blank ORC in antibiotic”.
Due to the acidity of ORC, which provides some antibiotic effect, the size of the pad used was small i.e. approximately 1×1.5 inch, weighing between 65-75 mg (70 mg on average) in order to prevent the ORC from affecting the final pH of the assay and therefore the growth of the bacteria.
15 ml tubes, each containing 3 ml of an antibiotic solution at a known concentration in sterile PBS, were prepared in duplicate.
Blank ORC pads were subjected to extraction and degradation in the antibiotic solution by immersing the ORC pads in the antibiotic solution for 3-5 hours at ambient temperature on a roller mixer (Stuart, Cat#SRT9D).
Blank extract of degradation products of ORC and extract in antibiotic of degradation products of ORC, prepared as described above, were diluted 10 folds in MHBII in sterile 15 ml capped tubes.
as §1
Columns 3 to 6, rows B to F, were filled with the Blank ORC extracted in antibiotic at decreasing concentrations 1 to 5, diluted 10 folds in MHBII. Each sample tested was placed in 4 well repeats for statistical results.
Columns 7 to 10, rows B to F, were filled with the antibiotic solution (AB) at decreasing concentrations 1 to 5, diluted 10 folds in MHBII. Each sample tested was placed in 4 well repeats for statistical results.
Columns 3 to 6, row G, were filled with the blank extract of degradation products of ORC (PBS-ORC) diluted 10 folds in MHBII.
The plate was incubated at 37° C. with shaking in the ELISA reader and the optical density at 600 nm was read every 20 minutes for a total of 18 hours.
The average and standard deviation for OD readings was calculated for each time point of the wells using Excel. The average values were plotted against time to obtain a graph of the bacterial growth curves in the presence of each of the antibiotics tested.
In some cases, the average OD was plotted for a single endpoint of 800 minutes for the various antibiotic treatments and controls.
The average values were also entered into the GraphPad Prism program (GraphPad Software Inc., CA, USA) in order to calculate the Effective Time 50 (ET50) i.e. the time, in minutes, required for the antibiotic to induce a response halfway between the baseline and maximum, where the maximum is the bacterial growth in MHBII with PBS. This provides a quantifiable measure of the efficacy of the antibiotics tested and enables comparison of the various samples tested.

Assay [4] relates to S. aureus. As to conditions: cited from earlier work.

These results are taken from patent US20190184069A1, “ANTIMICROBIAL COMPOSITIONS COMPRISING MINOCYCLINE AND DEGRADATION PRODUCTS OF OXIDIZED CELLULOSE” (Omrix Biopharmaceuticals Ltd., priority 2017, published 2019).

“Also recorded” adds a separate entry of the source.

Regarding `CCC[C@@H]1C[C@@H](C(=O)N[C@@H]([C@H]2O[C@H](SC)[C@H](O)[C@@H](O)[C@H]2O)[C@H](C)Cl)N(C)C1` [Clindamycin, clindamycin], in the assay on S. aureus [1], the “MIC as single antibiotics in the absence of ORC (first stage MIC results)” value worked out at 0.062 mg/L. Also, the “Clindamycin level sufficient for growth inhibition of S. aureus in combination” value in the assay with S. aureus [2] came out at 8.9 ng/mL. Also, the “Effect of addition of degradation products of ORC on the antibiotic activity” value (“Effect” for short) in the assay on S. aureus [3] is given as “no effect”.
As for `CN(C)[C@@H]1C(O)=C(C(N)=O)C(=O)[C@@]2(O)C(O)=C3C(=O)c4c(O)cccc4[C@@](C)(O)[C@H]3C[C@@H]12` [Tetracycline], the “Effect” value in the assay with S. aureus [3] is recorded as “no effect”. Further, the ET50 came out at 517.7 min in the assay on S. aureus [3] (tetracycline 0.025 μg/ml, +ORC degradation products); 531.1 min in the assay with S. aureus [3] (tetracycline 0.025 μg/ml, −ORC); 741.1 min in the assay with S. aureus [3] (tetracycline 0.05 μg/ml, +ORC degradation products); 989.9 min in the assay with S. aureus [3] (tetracycline 0.05 μg/ml, −ORC); 1470 min with S. aureus [3] (tetracycline 0.1 μg/ml, +ORC degradation products); 1889 min in the assay on S. aureus [3] (tetracycline 0.1 μg/ml, −ORC). Also, the ET50 was more than 2000 min in the assay with S. aureus [3] (tetracycline 0.2 μg/ml, +ORC degradation products); more than 2000 min in the assay on S. aureus [3] (tetracycline 0.2 μg/ml, −ORC); more than 2000 min in the assay on S. aureus [3] (tetracycline 0.4 μg/ml, +ORC degradation products); more than 2000 min in the assay on S. aureus [3] (tetracycline 0.4 μg/ml, −ORC).
For Gentamycin [Gentamicin], the “MIC values found in the present study (primary stage, Example 1)” value in the assay with S. aureus [1] (antibiotic alone, no ORC) came to 0.25 mg/L. Besides, the “MIC values for S. aureus according to the literature” value in the assay on S. aureus [4] was 0.12 to 1 mg/L. In the assay with S. aureus [3], the “Effect” value was “reduction in the antibiotic activity; also recorded: decreased antibiotic activity; also recorded: lowering of the antibiotic activity; also recorded: impaired”. The ET50 came to 423.7 min in the assay on S. aureus [3] (gentamycin 0.1 μg/ml, +ORC degradation products); 509.4 min in the assay with S. aureus [3] (gentamycin 0.1 μg/ml, −ORC); 429.3 min in the assay with S. aureus [3] (gentamycin 0.3 μg/ml, +ORC degradation products); 1360 min in the assay with S. aureus [3] (gentamycin 0.3 μg/ml, −ORC); 423.1 min in the assay on S. aureus [3] (gentamycin 0.5 μg/ml, +ORC degradation products); 422.7 min in the assay on S. aureus [3] (gentamycin 0.8 μg/ml, +ORC degradation products). For the same compound, the ET50 in the assay on S. aureus [3] (gentamycin 1 μg/ml, +ORC degradation products) is 446.6 min.
